What was measured:
[1] = target: T1, insulin-degrading enzyme (IDE) (Homo sapiens, UniProt P14735); experiment: Inhibition of / competition with sp6 or sp6BY degradation in S10 extract; assay type: biochemical; conditions: 10 ng sp6BY, 5 μg S10 extract, 30 min, 37°C; fluorescence; mean of at least three independent experiments
T1 construct: endogenous in cells; host or cells: HeLa cells (cytosolic S10 extract)
Description: (§1) For generation of S10, confluent dishes with HeLa cells were extensively washed and subsequently lysed with a modified S10 buffer (250 mM sucrose, 80 mM KCl, 10 mM Tris pH 7.6, 0.1% (v/v) Triton X-100 [91]). Debris and nuclei were removed by centrifugation at 10.000 × g for 10 min. Protein content was determined by BCA-Assay (Pierce) and aliquots stored at -80°C.
(§2) Reactions were stopped by addition of sample buffer and incubation at 95°C for 5 min. Remaining p6 was detected by Western blotting using an anti-p6 rabbit antiserum. Alternatively, 10 ng of BODIPY FL-labeled sp6 (sp6BY) were used as substrate and detected directly in the polyacrylamide gel by fluorescence scanning. In some experiments the amount of p6 was densitometrically quantified with the software AIDA (Raytest). For the in vitro degradation of amyloid-β 10 ng of Aβ-FITC (abcam) were used analogously to sp6BY. For the in vitro degradation of viral p6, VLPs were pelleted and lysed in IDE enzyme buffer (150 mM NaCl, 50 mM Tris pH 7.4, 0.5% (v/v) Triton X-100). The p6 content was estimated by Western blotting using a dilution series of sp6 with known concentrations. Equivalents of 15 ng were used for digestion experiments and subsequently detected by Western blotting. Experiments carried out with recombinant IDE (Calbiochem) were performed in IDE enzyme buffer.
Bestatin, Chymostatin, E-64, Leupeptin, Pepstatin, Phosphoramidon, Pefabloc SC, EDTA, Aprotinin, Antipain were purchased from Roche as part of a protease inhibitors set and used at the following concentrations: 74 μM Antipain; 130 μM Bestatin; 100 μM Chymostatin; 28 μM E-64; 1 μM Leupeptin; 1 μM Pepstatin; 600 nM Phosphoramidon; 4 mM Pefabloc SC; 1.3 mM EDTA; […]. […] (Phoenix Pharmaceuticals and Tocris), TPEN (Calbiochem), and NEM (Roche) were purchased from companies indicated.

[2] = target: T1, insulin-degrading enzyme (IDE); experiment: Inhibition of Aβ-FITC degradation in S10 extract; assay type: biochemical; conditions: 10 ng FITC-labeled Aβ 1–40, 5 μg S10, 45 min, 37°C; fluorescence; four independent experiments
Description: as §2, with “[…] Reactions” for “Reactions”, “buffer. Recombinant FITC-labeled insulin was purchased from Sigma.” for “buffer.”
Supplementary file pone.0174254.s003.tif: S3 Fig p6 competes with the in vitro degradation of Aβ. […] Aβ-FITC was detected by measurement of fluorescence excitation. The band marked with * represents Aβ-oligomers and has been described earlier. (B) Band intensities were quantified for four independent experiments and values represent the arithmetic mean ± SD. […]

[3] = In vitro degradation in cytosolic S10 HeLa cell extract; assay type: in vitro ADME; conditions: human, cytosolic S10 HeLa cell extract; 100 ng sp6, 5 μg S10 extract from HeLa cells, 37°C; Western blot (anti-p6), quantified; estimated from exponential decay; mean of 4 independent experiments
Description: as §1
as §2, with “Typically 5 μg S10 were incubated with inhibitor or buffer and 20–100 ng sp6 at 37°C for 30 min. Reactions” for “Reactions”, “buffer. Recombinant FITC-labeled insulin was purchased from Sigma.” for “buffer.”

recombinant IDE (rIDE) = target: T2, recombinant IDE (rIDE) (Rattus norvegicus, UniProt P35559); experiment: In vitro degradation by recombinant IDE (extent, kinetics, cleavage sites); assay type: biochemical; conditions: 30 min, 37°C
T2 construct: purchased Calbiochem
Description: (A) 10 ng of sp6BY or insulin-FITC were incubated with indicated amounts of rIDE for 30 min at 37°C. Remaining amounts of sp6BY and insulin-FITC were detected by measurement of fluorescence excitation. (B) Results of four independently performed experiments. Values represent the arithmetic mean ± SD. (C) Increasing concentrations of sp6BY were incubated with rIDE for 10 min at 37°C. The velocities were calculated from the degradation of sp6BY and normalized for the amount of rIDE. Data points represent values from three independent experiments in a double-reciprocal Lineweaver-Burk plot.
Fig 8 Generation of stable p6 mutants. […] Reactions were stopped by adjusting the samples to 0.3% (w/v) […] and subsequently analyzed by mass spectrometry. Arrows above the primary sequence represent the detected cleavage sites, and initial and secondary cleavage sites are indicated as big or small arrows, respectively. […] (C) 10 ng of sp6BY were incubated with 250 μg/ml sp6 wt, 2xPTAPPA, 3xPTAPPA or only buffer and 5 μg S10 for 30 min at 37°C. sp6BY was detected by fluorescence emission and quantified. […]
Typically 5 μg S10 were incubated with inhibitor or buffer and 20–100 ng sp6 at 37°C for 30 min. […] Remaining p6 was detected by Western blotting using an anti-p6 rabbit antiserum. […] In some experiments the amount of p6 was densitometrically quantified with the software AIDA (Raytest). […]

[4] = tested on: IDE (S10 extract or rIDE); assay type: in vitro ADME; conditions: 20 ng sp6 or 30 ng vp6 with 5 μg S10 extract or 2 ng rIDE, up to 60 min; Western blot densitometry; at least 3 independent experiments per setting; value depends on the experimental setting
Description: Fig 9 Multiplication of PTAPPA-motifs stabilizes p6. 20 ng of sp6 or 30 ng of vp6 were incubated either with 5 μg S10 extract (A/B/C) or 2 ng of rIDE (D) for up to 60 min. Degradation efficiency was quantified via densitometric analyses of Western blots. Values represent the arithmetic mean ± SD of at least 3 independent experiments for each setting.
as §2, with “Typically 5 μg S10 were incubated with inhibitor or buffer and 20–100 ng sp6 at 37°C for 30 min. Reactions” for “Reactions”, “Experiments carried out with recombinant IDE (Calbiochem) were performed in IDE enzyme buffer.” left out

T2 sequence (P35559 whole entry): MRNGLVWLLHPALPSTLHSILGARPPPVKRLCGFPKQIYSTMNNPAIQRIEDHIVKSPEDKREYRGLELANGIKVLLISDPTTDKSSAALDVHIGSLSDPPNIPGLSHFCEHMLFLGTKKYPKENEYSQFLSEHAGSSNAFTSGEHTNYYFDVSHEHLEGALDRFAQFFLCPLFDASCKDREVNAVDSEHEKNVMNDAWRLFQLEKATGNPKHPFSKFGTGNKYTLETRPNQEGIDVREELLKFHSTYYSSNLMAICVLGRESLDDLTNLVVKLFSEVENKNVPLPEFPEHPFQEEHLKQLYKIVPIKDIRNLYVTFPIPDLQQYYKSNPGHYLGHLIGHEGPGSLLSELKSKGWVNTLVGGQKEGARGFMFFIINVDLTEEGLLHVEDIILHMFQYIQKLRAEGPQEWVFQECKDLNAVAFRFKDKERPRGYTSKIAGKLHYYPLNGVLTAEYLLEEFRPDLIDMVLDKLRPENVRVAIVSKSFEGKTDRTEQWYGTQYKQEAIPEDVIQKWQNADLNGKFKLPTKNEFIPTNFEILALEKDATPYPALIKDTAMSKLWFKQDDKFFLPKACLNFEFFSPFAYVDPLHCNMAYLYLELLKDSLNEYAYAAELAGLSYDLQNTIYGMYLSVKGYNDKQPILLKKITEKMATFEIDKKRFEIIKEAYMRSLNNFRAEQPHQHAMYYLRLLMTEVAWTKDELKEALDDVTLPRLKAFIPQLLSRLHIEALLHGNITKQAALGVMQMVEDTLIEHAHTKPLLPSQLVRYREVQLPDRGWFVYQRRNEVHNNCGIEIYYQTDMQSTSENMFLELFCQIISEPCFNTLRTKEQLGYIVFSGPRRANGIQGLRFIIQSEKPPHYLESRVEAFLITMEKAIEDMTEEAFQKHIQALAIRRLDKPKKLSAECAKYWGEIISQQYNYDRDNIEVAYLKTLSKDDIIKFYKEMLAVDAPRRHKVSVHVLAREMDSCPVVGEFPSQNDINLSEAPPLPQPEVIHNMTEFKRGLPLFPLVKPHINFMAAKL
T1 sequence (P14735 whole entry): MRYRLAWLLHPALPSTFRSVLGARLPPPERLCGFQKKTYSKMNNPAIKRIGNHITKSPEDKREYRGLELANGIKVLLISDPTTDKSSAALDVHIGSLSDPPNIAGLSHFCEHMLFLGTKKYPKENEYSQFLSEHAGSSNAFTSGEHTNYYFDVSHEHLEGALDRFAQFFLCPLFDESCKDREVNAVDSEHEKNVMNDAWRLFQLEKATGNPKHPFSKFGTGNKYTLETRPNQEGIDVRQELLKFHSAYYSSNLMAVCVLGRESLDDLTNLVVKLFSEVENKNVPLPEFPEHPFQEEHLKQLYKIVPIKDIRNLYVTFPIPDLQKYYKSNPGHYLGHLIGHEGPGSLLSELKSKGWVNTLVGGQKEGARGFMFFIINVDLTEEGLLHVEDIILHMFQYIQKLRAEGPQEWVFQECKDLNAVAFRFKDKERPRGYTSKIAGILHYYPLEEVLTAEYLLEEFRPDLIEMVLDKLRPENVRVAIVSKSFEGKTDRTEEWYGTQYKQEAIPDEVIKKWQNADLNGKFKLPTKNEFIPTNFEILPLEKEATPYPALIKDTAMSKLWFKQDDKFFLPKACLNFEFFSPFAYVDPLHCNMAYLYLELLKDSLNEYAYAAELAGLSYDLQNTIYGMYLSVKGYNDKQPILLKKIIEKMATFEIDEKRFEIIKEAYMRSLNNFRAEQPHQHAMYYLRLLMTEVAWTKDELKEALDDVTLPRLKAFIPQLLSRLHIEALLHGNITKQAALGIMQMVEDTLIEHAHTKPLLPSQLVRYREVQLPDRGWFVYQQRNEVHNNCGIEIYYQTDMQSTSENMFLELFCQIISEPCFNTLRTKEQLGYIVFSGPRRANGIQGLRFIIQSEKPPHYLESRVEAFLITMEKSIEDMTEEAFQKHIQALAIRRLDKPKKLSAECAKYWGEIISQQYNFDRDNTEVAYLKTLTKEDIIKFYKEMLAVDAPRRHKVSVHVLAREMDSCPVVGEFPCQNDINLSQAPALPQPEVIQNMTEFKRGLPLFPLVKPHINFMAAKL

Work on `CC[C@H](C)[C@H](NC(=O)[C@@H]1CCCN1C(=O)[C@H](CCC(=O)O)NC(=O)[C@H](CCC(N)=O)NC(=O)[C@H](CCCCN)NC(=O)[C@H](CCC(N)=O)NC(=O)[C@H](CO)NC(=O)[C@@H]1CCCN1C(=O)[C@@H](NC(=O)[C@@H](NC(=O)[C@@H](NC(=O)[C@H](CCC(=O)O)NC(=O)[C@H](CCC(=O)O)NC(=O)CNC(=O)[C@H](Cc1ccccc1)NC(=O)[C@H](CCCNC(=N)N)NC(=O)[C@H](Cc1ccccc1)NC(=O)[C@H](CO)NC(=O)[C@H](CCC(=O)O)NC(=O)[C@H](CCC(=O)O)NC(=O)[C@@H]1CCCN1C(=O)[C@@H]1CCCN1C(=O)[C@H](C)NC(=O)[C@@H](NC(=O)[C@@H]1CCCN1C(=O)[C@H](CCC(=O)O)NC(=O)[C@@H]1CCCN1C(=O)[C@H](CCCNC(=N)N)NC(=O)[C@H](CO)NC(=O)[C@H](CCC(N)=O)NC(=O)[C@@H](N)CC(C)C)[C@@H](C)O)[C@@H](C)O)[C@@H](C)O)[C@@H](C)O)C(=O)N[C@@H](CC(=O)O)C(=O)N[C@@H](CCCCN)C(=O)N[C@@H](CCC(=O)O)C(=O)N[C@@H](CC(C)C)C(=O)N[C@@H](Cc1ccc(O)cc1)C(=O)N1CCC[C@H]1C(=O)N[C@@H](CC(C)C)C(=O)N[C@@H](C)C(=O)N[C@@H](CO)C(=O)N[C@@H](CC(C)C)C(=O)N[C@@H](CCCNC(=N)N)C(=O)N[C@@H](CO)C(=O)N[C@@H](CC(C)C)C(=O)N[C@@H](Cc1ccccc1)C(=O)NCC(=O)N[C@@H](CO)C(=O)N[C@@H](CC(=O)O)C(=O)N1CCC[C@H]1C(=O)N[C@@H](CO)C(=O)N[C@@H](CO)C(=O)N[C@@H](CCC(N)=O)C(=O)O` [sp6] yielded an IC50 [1] of roughly 30.1 µM, an IC50 [2] of 13.8 µM and a half-life [3] of roughly 10 min. For the same compound, the “degradation by recombinant IDE” value (recombinant IDE (rIDE); 10 ng rIDE, IDE enzyme buffer, 10 ng sp6BY (fluorescence) or VLP/virion lysate (Western blot)) was “degraded by recombinant IDE”.
In the case of `CC[C@H](C)[C@H](NC(=O)[C@@H]1CCCN1C(=O)[C@H](CCC(=O)O)NC(=O)[C@H](CCC(N)=O)NC(=O)[C@H](CCCCN)NC(=O)[C@H](CCC(N)=O)NC(=O)[C@H](CO)NC(=O)[C@@H]1CCCN1C(=O)[C@@H](NC(=O)[C@@H](NC(=O)[C@@H](NC(=O)[C@H](CCC(=O)O)NC(=O)[C@H](CCC(=O)O)NC(=O)CNC(=O)[C@H](Cc1ccccc1)NC(=O)[C@H](CCCNC(=N)N)NC(=O)[C@H](Cc1ccccc1)NC(=O)[C@H](CO)NC(=O)[C@H](CCC(=O)O)NC(=O)[C@H](C)NC(=O)[C@@H]1CCCN1C(=O)[C@@H]1CCCN1C(=O)[C@H](C)NC(=O)[C@@H](NC(=O)[C@@H]1CCCN1C(=O)[C@H](C)NC(=O)[C@@H]1CCCN1C(=O)[C@@H]1CCCN1C(=O)[C@H](C)NC(=O)[C@@H](NC(=O)[C@@H]1CCCN1C(=O)[C@H](CCC(=O)O)NC(=O)[C@@H]1CCCN1C(=O)[C@H](CCCNC(=N)N)NC(=O)[C@H](CO)NC(=O)[C@H](CCC(N)=O)NC(=O)[C@@H](N)CC(C)C)[C@@H](C)O)[C@@H](C)O)[C@@H](C)O)[C@@H](C)O)[C@@H](C)O)C(=O)N[C@@H](CC(=O)O)C(=O)N[C@@H](CCCCN)C(=O)N[C@@H](CCC(=O)O)C(=O)N[C@@H](CC(C)C)C(=O)N[C@@H](Cc1ccc(O)cc1)C(=O)N1CCC[C@H]1C(=O)N[C@@H](CC(C)C)C(=O)N[C@@H](C)C(=O)N[C@@H](CO)C(=O)N[C@@H](CC(C)C)C(=O)N[C@@H](CCCNC(=N)N)C(=O)N[C@@H](CO)C(=O)N[C@@H](CC(C)C)C(=O)N[C@@H](Cc1ccccc1)C(=O)NCC(=O)N[C@@H](CO)C(=O)N[C@@H](CC(=O)O)C(=O)N1CCC[C@H]1C(=O)N[C@@H](CO)C(=O)N[C@@H](CO)C(=O)N[C@@H](CCC(N)=O)C(=O)O` [2x], the “half-life in in vitro degradation assays” value [4] is reported as “up to 30 min”.
With “insulin-FITC: recombinant FITC-labeled insulin (Sigma)” the “amount of rIDE required to cleave with the same efficiency, relative to sp6” value (recombinant IDE (rIDE); 10 ng insulin-FITC, fluorescence, four independent experiments) was 100 fold.

From paper PMC5384750 (PLoS ONE, 2017)
